In experiment [1] the test system is H3K27me3 mark in HeLa cells. Nature of the experiment: H3K27me3 Alpha Hela Assay (AlphaLISA). It is filed as cell-based. To be noted: Homo sapiens, 72 hrs, read-out: EZH2_Cell_H3K27me3_Alpha_HeLa (EC50_K27me3). On the procedure: Ten different doses of each test compound (in a series of 3-fold dilutions) were plated in duplicate 384-well tissue culture treated plates (Catalog #781080; Greiner Bio One; Monroe, N.C.). Hela cells grown in culture were trypsinized and counted using a Countess® cell counter (Catalog # C10281; Life Technologies, Grand Island, N.Y.). Cell were diluted to 67,000 cells per mL in 10% DMEM (Catalog #10569-010 Life Technologies, Grand Island, N.Y.) and 15 μL (1,000 cells) were plated into each well using the Biotek MicroFlo™ Select Dispenser (BioTek Instruments, Inc. Vermont, USA),) of the 384-well plate. Plates were incubated at 37° C./5% CO2 for 72 hrs. One of the duplicate plates was processed for HeLa assay and the other for viability.
To the plate processed for AlphaLISA was added 5 μL per well Cell-Histone Lysis buffer (1λ) (Catalog # AL009F1 Perkin Elmer; Waltham, Mass.) and the plate was incubated at RT for 30 minutes on a plate shaker with low speed (Model#4625-Q Thermo Scientific; Waltham, Mass.). Then, 10 μL per well Histone Extraction buffer (catalog # AL009F2; Perkin Elmer; Waltham, Mass.) was added and the plate further incubated at RT for 20 min on plate shaker with low speed. To each well was then added 10 μL per well of a 5× mix of anti-K27me3 acceptor beads plus Biotinylated anti-Histone H3 (C-ter) Antibody (diluted to 3 nM final) (Catalog #AL118 Perkin Elmer; Waltham, Mass.). Dilution of the acceptor beads and then anti-Histone H3 was with 1× Histone Detection buffer (Catalog # AL009F3 Perkin Elmer; Waltham, Mass.) which was produced diluted from the 10× stock provided. The plate was sealed with an aluminum plate sealer and incubated at 23° C. for 60 min. We then added 10 μL 5× solution of Streptavidin Donor beads (Catalog #6760002 Perkin Elmer; Waltham, Mass.) (20 μg/mL final in 1× Histone Detection Buffer), sealed the plate with Aluminum plate sealer and incubated at 23° C. for 30 min. The plates were then read using an EnVision-Alpha Reader (model #2104 Perkin Elmer; Waltham, Mass.).
Data from both assays was analyzed using Assay Assistant (Constellation Pharmaceuticals In-house product) and Activity Base (IDBS Ltd, Surrey, UK) template. Data files were imported to Assay Assistant and assay conditions were specified. A unique Analysis ID was created and the data files exported to Activity Base. An analysis template was created on Activity Base to measure dose-dependent inhibition of H3K27me3 mark and cell viability respectively. Readout of DMSO wells were used to normalize the data. Resulting curves were fitted using Activity base software Model 205 (IDBS Ltd, Surrey, UK). The data was checked for quality, validated and integrated in excel format using SARview (IDBS Ltd, Surrey, UK).

The next experiment deals with EZH2 (Homo sapiens, UniProt Q15910). Put plainly: EZH2 assay (rPRC2, 3H SAM methyl transfer to biotinylated oligonucleosomes, FlashPlate). It is filed as biochemical. On the procedure: EZH2 Assay: Assays were carried out by mixing rPRC2 together with biotinylated oligonucleosome substrates in the presence of the radio-labeled enzyme co-factor, S-adenosyl-L-methionine (^3H SAM) (Perkin Elmer) and monitoring the enzymatically mediated transfer of tritiated methyl groups from ^3H SAM to histone lysine residues. The amount of resulting tritiated methyl histone product was measured by first capturing the biotinylated oligonucleosomes in streptavidin (SAV) coated FlashPlates (Perkin Elmer), followed by a wash step to remove un-reacted ^3H SAM, and then counting on a TopCount NXT 384 well plate scintillation counter (Perkin Elmer). The final assay conditions for EZH2 were as follows: 50 mM Tris Buffer pH 8.5, 1 mM DTT, 69 μM Brij-35 detergent, 5.0 mM MgCl2, 0.1 mg/mL BSA, 0.2 μM ^3H SAM, 0.2 μM biotinylated oligonucleosomes, 3.6 μM H3K27me3 peptide and 2 nM EZH2.
A 12.5 μL volume of the HMT enzyme, H3K27me3 peptide and oligonucleosome substrate in assay buffer was added to each well of the assay plate using a Multidrop Combi (ThermoFisher). Compounds were pre-incubated with the enzyme for 20 min, followed by initiation of the methyltransferase reaction by addition of 12.5 μL of ^3H SAM in assay buffer (final volume=25 μL). The final concentrations of compounds ranged from a top default concentration of 80 μM down to 0.16 μM in ten 2-fold dilution steps. Reactions were carried out for 60 minutes and quenched with 20 μL per well of 1.96 mM SAH, 50 mM Tris pH 8.5, 200 mM EDTA. Stopped reactions were transferred to SAV coated Flashplates (Perkin Elmer), incubated for 120 min, washed with a plate washer, and then read on the TopCount NXT (1.0 min/well) to measure the amount of methyl histone product formed during the reaction.

Where two headings read alike, the source gives them in different places.

Chain of EZH2 (Q15910 whole entry): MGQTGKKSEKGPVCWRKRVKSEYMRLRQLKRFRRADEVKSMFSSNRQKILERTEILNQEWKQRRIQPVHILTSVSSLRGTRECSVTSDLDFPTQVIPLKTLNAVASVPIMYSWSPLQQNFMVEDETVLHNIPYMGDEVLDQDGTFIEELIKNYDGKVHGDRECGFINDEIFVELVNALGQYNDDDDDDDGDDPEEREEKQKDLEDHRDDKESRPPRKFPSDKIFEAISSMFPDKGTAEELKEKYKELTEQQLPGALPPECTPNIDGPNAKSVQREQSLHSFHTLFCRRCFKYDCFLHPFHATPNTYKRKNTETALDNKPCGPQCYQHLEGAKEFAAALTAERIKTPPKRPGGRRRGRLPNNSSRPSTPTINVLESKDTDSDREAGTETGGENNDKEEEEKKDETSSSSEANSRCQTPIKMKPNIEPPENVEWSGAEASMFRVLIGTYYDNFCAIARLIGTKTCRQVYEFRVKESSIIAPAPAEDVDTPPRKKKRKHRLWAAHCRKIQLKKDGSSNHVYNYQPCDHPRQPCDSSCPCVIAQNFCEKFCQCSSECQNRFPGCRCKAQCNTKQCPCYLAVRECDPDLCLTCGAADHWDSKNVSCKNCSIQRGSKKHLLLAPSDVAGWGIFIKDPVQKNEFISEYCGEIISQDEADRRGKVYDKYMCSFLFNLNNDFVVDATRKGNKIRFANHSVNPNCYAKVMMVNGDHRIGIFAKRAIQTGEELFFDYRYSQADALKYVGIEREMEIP
Chain of EZH2 (O75530 whole entry partner): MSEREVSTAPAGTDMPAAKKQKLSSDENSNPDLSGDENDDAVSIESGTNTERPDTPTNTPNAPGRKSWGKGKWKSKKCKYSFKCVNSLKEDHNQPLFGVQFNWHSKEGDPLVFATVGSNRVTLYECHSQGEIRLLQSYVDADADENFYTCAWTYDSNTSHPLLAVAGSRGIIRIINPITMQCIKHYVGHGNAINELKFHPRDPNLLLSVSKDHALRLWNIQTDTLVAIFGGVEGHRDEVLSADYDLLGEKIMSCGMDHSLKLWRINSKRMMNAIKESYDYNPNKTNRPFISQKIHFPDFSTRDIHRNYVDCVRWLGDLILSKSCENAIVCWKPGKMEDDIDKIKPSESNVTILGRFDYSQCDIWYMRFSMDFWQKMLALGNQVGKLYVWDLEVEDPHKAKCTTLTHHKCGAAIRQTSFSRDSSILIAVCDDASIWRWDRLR
Chain of EZH2 (Q15022 whole entry partner): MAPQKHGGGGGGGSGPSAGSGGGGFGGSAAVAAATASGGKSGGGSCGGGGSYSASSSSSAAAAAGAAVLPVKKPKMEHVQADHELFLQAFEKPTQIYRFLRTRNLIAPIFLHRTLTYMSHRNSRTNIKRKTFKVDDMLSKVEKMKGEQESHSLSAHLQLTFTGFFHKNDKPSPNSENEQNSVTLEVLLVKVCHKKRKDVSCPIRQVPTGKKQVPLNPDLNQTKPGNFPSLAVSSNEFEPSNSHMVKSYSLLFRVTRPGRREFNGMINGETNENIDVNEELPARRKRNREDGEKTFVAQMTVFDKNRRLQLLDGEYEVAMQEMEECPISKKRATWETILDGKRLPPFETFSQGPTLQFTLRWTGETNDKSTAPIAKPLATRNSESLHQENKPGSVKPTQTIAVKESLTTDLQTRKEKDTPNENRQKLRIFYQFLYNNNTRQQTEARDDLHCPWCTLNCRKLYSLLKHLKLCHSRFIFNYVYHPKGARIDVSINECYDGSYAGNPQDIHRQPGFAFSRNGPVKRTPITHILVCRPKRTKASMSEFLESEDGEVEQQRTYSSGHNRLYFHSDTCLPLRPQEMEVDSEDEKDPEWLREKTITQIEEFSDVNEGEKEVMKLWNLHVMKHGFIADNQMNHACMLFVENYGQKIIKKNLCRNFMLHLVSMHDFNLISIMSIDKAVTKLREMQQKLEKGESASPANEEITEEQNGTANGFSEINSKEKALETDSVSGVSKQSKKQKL

On to `CCCc1cc(C)[nH]c(=O)c1CNC(=O)c1c(C)n([C@H](C)C2CCN(S(=O)(=O)CC)CC2)c2ccccc12` [Compound 132], for which, in experiment [1], the EC50 was under 400 nM. Regarding `CCS(=O)(=O)N1CCC([C@@H](C)n2c(C)c(C(=O)NCc3c(OCC(F)(F)F)cc(C)[nH]c3=O)c3ccccc32)CC1` [Compound 163], the EC50 in experiment [1] fell in the range of 400 to 2000 nM. For orientation: IC50 means the concentration that inhibits the measured activity by half. On to `COc1cc(C)[nH]c(=O)c1CNC(=O)c1c(C)n([C@H](C)C2CCN(Cc3ccc(C#N)cn3)CC2)c2ccccc12` [Compound 250], for which the IC50 against EZH2 was under 100 nM. In experiment [1], the EC50 was under 400 nM. The matching figures for `COc1cc(C)[nH]c(=O)c1CNC(=O)c1c(C)n([C@H](C)C2CCN(C(=O)C(C)(C)C(F)(F)F)CC2)c2ccccc12` [Compound 114]: under 100 nM and under 400 nM.

As to `COc1cc(C)[nH]c(=O)c1CNC(=O)c1c(C)n([C@H](C)C2CCN(Cc3nccn3C)CC2)c2ccccc12` [Compound 239], the IC50 at EZH2 is under 100 nM. For the same molecule, the EC50 in experiment [1] lay in the range of 400 to 2000 nM.

As for `COc1cc(C)[nH]c(=O)c1CNC(=O)c1c(C)n([C@H](C)C2CCN(C(=O)N3CCC(F)(F)CC3)CC2)c2ccccc12` [Compound 249], the IC50 against EZH2 was under 100 nM. In addition, the EC50 in experiment [1] fell in the range of 400 to 2000 nM. `COc1cc(C)[nH]c(=O)c1CNC(=O)c1c(C)n([C@H](C)C2CCN(C(=O)C(C)=O)CC2)c2ccccc12` [Compound 211] gave an IC50 against EZH2 of under 100 nM. In experiment [1], the EC50 lay in the range of 400 to 2000 nM.

Consider `COC(C)(C)CN1CCC([C@@H](C)n2c(C)c(C(=O)NCc3c(C)cc(C)[nH]c3=O)c3ccccc32)CC1` [Compound 127], for which the half-inhibitory concentration (IC50) against EZH2 was under 100 nM. Moreover, the EC50 in experiment [1] was under 400 nM. Consider `COc1cc(C)[nH]c(=O)c1CNC(=O)c1c(C)n([C@H](C)C2CCN(C(=O)Cc3ccccc3)CC2)c2ccccc12` [Compound 212], for which the 50% inhibitory concentration (IC50) against EZH2 was under 100 nM. Besides, in experiment [1], the EC50 was under 400 nM. The matching figures for `COc1cc(C)[nH]c(=O)c1CNC(=O)c1c(C)n([C@H](C)C2CCN(C(=O)C3CCC3)CC2)c2ccccc12` [Compound 216]: under 100 nM and under 400 nM. For `COc1cc(C)[nH]c(=O)c1CNC(=O)c1c(C)n([C@H](C)C2CCN(CC3(C(F)(F)F)CCC3)CC2)c2ccccc12` [Compound 135], in experiment [1], the EC50 was under 400 nM. The molecule `COCC(F)(F)CN1CCC([C@@H](C)n2c(C)c(C(=O)NCc3c(OC)cc(C)[nH]c3=O)c3ccccc32)CC1` [Compound 181] gave a 50% inhibitory concentration (IC50) against EZH2 of under 100 nM. The EC50 in experiment [1] was under 400 nM. With `COc1cc(C)[nH]c(=O)c1CNC(=O)c1c(C)n([C@H](C)C2CCN(C(=O)C3(C)CN(C)C3)CC2)c2ccccc12` [Compound 192], the half-inhibitory concentration (IC50) against EZH2 was under 100 nM. Further, the EC50 in experiment [1] is over 2000 nM.

`COc1cc(C)[nH]c(=O)c1CNC(=O)c1c(C)n([C@H](C)C2CCN(C(=O)C3CCC(C)CC3)CC2)c2ccccc12` (mixture of isomers) [Compound 234] showed an IC50 at EZH2 of under 100 nM. In addition, the EC50 in experiment [1] was under 400 nM. Molecule `COc1cc(C)[nH]c(=O)c1CNC(=O)c1c(C)n([C@H](C)C2CCN(Cc3ccc(C#N)cc3)CC2)c2ccccc12` [Compound 232] displayed an IC50 against EZH2 of under 100 nM. For the same molecule, the EC50 in experiment [1] was under 400 nM. The like results for `COc1cc(C)[nH]c(=O)c1CNC(=O)c1c(C)n([C@H](C)C2CCN(C(=O)C3(F)CCN(C)CC3)CC2)c2ccccc12` [Compound 242] were, in that order, under 100 nM and 400 to 2000 nM. Regarding `COc1cc(C)[nH]c(=O)c1CNC(=O)c1c(C)n([C@H](C)C2CCN(C(=O)c3ccc(C#N)cc3)CC2)c2ccccc12` [Compound 214], the IC50 at EZH2 was under 100 nM. Further, the EC50 in experiment [1] was in the range of 400 to 2000 nM.

As for `COc1cc(C)[nH]c(=O)c1CNC(=O)c1c(C)n([C@H](C)C2CCN(C(=O)C3CCN(C)CC3)CC2)c2ccccc12` [Compound 243], the IC50 against EZH2 was under 100 nM. For the same molecule, the EC50 in experiment [1] is over 2000 nM. Take `COc1cc(C)[nH]c(=O)c1CNC(=O)c1c(C)n([C@H](C)C2CCN(Cc3cncc(F)c3)CC2)c2ccccc12` [Compound 257]: the 50% inhibitory concentration (IC50) against EZH2 was under 100 nM. Besides, in experiment [1], the EC50 was under 400 nM. At EZH2, `COc1cc(C)[nH]c(=O)c1CNC(=O)c1c(C)n([C@H](C)C2CCN(CC3CCO3)CC2)c2ccccc12` (stereo partly shown) [Compound 179] came in with an IC50 of under 100 nM. Further, the EC50 in experiment [1] lay in the range of 400 to 2000 nM.

`COc1cc(C)[nH]c(=O)c1CNC(=O)c1c(C)n([C@H](C)C2CCN(Cc3cnccn3)CC2)c2ccccc12` [Compound 261]: the IC50 on EZH2 is under 100 nM. In experiment [1], the EC50 was under 400 nM. At EZH2, `COc1cc(C)[nH]c(=O)c1CNC(=O)c1c(C)n([C@H](C)C2CCN(Cc3cccc(C)n3)CC2)c2ccccc12` [Compound 267] registered a half-maximal inhibitory concentration (IC50) of under 100 nM. Further, the EC50 in experiment [1] was under 400 nM. As for `COc1cc(C)[nH]c(=O)c1CNC(=O)c1c(C)n([C@H](C)C2CCN(CC(C)=O)CC2)c2ccccc12` [Compound 169], the IC50 at EZH2 (2 nM EZH2, 0.2 μM 3H SAM, 0.2 μM biotinylated oligonucleosomes, 3.6 μM H3K27me3 peptide, 60 min, read-out: EZH2_nuc_BSA_Brij_1.5 (IC50)) is under 100 nM. On EZH2, `CCC(C)(C)C(=O)N1CCC([C@@H](C)n2c(C)c(C(=O)NCc3c(OC)cc(C)[nH]c3=O)c3ccccc32)CC1` [Compound 233] gave an IC50 of under 100 nM. In experiment [1], the EC50 is under 400 nM. For the molecule `COc1cc(C)[nH]c(=O)c1CNC(=O)c1c(C)n([C@H](C)C2CCN(S(=O)(=O)c3cccnc3)CC2)c2ccccc12` [Compound 258], the IC50 against EZH2 was under 100 nM. In addition, in experiment [1], the EC50 lay within 400 to 2000 nM. In turn, `COc1cc(C)[nH]c(=O)c1CNC(=O)c1c(C)n([C@H](C)C2CCN(C(=O)C3CCCC3)CC2)c2ccccc12` [Compound 235] gave an IC50 on EZH2 of under 100 nM. Also, the EC50 in experiment [1] lay within 400 to 2000 nM.

On to `CC(=O)N1CC(N2CCC([C@@H](C)n3c(C)c(C(=O)NCc4c(C)cc(C)[nH]c4=O)c4ccccc43)CC2)C1` [Compound 231], for which the IC50 at EZH2 is under 100 nM. Also, the EC50 in experiment [1] is 400 to 2000 nM. On to `COc1cc(C)[nH]c(=O)c1CNC(=O)c1c(C)n([C@H](C)C2CCN(Cc3cc(C)ncn3)CC2)c2ccccc12` [Compound 266], for which the IC50 at EZH2 is under 100 nM. Besides, in experiment [1], the EC50 is under 400 nM.

On EZH2, `COc1cc(C)[nH]c(=O)c1CNC(=O)c1c(C)n([C@H](C)C2CCN(Cc3ccnc(C#N)c3)CC2)c2ccccc12` [Compound 264] yielded a concentration for half-maximal inhibition (IC50) of under 100 nM. Further, the EC50 in experiment [1] was under 400 nM. Regarding `COc1cc(C)[nH]c(=O)c1CNC(=O)c1c(C)n([C@H](C)C2CCN(C(C)(C)C(C)=O)CC2)c2ccccc12` [Compound 253], the IC50 at EZH2 is under 100 nM. In experiment [1], the EC50 is under 400 nM. The matching figures for `COc1cc(C)[nH]c(=O)c1CNC(=O)c1c(C)n([C@H](C)C2CCN(C(=O)N3CCC(F)(F)C3)CC2)c2ccccc12` [Compound 248]: under 100 nM and 400 to 2000 nM. For the molecule `COc1cc(C)[nH]c(=O)c1CNC(=O)c1c(C)n([C@H](C)C2CCN(C(=O)C3CC(F)(F)C3)CC2)c2ccccc12` [Compound 228], on EZH2, the IC50 is under 100 nM. Also, in experiment [1], the EC50 was in the range of 400 to 2000 nM. For the molecule `COc1cc(C)[nH]c(=O)c1CNC(=O)c1c(C)n([C@H](C)C2CCN(CC(C)(C)OC)CC2)c2ccccc12` [Compound 128], the EC50 in experiment [1] is under 400 nM.

For the origin of these results see patent US9969716B2, “Indole derivatives as modulators of methyl modifying enzymes, compositions and uses thereof” (Constellation Pharmaceuticals, Inc., priority 2013, dated 2018).
